Measured values as given in PMC5862592, “CDK8/19 inhibition induces premature G1/S transition and ATR-dependent cell death in prostate cancer cells” (Oncotarget, 2018).
Read-outs that look alike come from different tables or passages of the source.

Columns and labels:
Assay in all cases: biochemical
Set-up in all cases: KINOMEscan active site-directed competition binding assay (DiscoveRx), 456 kinases, per cent of control at 300 nM
Details in all cases: read-out: Percent of Control (%)
TNNI3K = TNNI3K (Homo sapiens, UniProt Q59H18)
Chain of TNNI3K (Q59H18 whole entry): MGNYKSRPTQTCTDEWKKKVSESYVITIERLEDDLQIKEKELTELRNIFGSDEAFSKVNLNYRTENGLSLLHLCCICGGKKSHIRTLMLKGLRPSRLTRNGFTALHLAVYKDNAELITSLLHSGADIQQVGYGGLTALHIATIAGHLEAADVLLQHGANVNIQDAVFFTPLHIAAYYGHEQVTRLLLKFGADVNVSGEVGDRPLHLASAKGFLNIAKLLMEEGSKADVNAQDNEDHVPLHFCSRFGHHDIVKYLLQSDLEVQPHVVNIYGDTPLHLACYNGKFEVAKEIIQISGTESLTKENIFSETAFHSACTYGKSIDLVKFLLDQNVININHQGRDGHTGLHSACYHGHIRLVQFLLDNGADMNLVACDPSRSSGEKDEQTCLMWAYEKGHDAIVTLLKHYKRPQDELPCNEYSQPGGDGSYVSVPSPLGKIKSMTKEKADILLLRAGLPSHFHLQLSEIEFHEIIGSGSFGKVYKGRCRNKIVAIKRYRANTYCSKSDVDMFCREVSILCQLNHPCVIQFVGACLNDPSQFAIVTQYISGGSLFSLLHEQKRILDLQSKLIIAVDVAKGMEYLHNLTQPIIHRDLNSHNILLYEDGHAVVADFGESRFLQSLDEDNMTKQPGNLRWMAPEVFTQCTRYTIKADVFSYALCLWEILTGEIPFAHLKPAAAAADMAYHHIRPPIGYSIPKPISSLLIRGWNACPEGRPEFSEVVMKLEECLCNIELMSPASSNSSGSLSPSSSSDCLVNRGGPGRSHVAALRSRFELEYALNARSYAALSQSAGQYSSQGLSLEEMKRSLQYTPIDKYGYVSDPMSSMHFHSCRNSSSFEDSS
Method in brief: (§1)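 Values reflect active-site competition binding from a screen of 456 kinases, with test compounds at a fixed 300 nmol/L.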

PLK4 = PLK4 (Homo sapiens, UniProt O00444)
Method in brief: as §1

SLK = SLK (Homo sapiens, UniProt Q9H2G2)
Method in brief: as §1

PKN2 = PKN2 (Homo sapiens, UniProt Q16513)
Method in brief: as §1

TAOK3 = TAOK3 (Homo sapiens, UniProt Q9H2K8)
Chain of TAOK3 (Q9H2K8 whole entry): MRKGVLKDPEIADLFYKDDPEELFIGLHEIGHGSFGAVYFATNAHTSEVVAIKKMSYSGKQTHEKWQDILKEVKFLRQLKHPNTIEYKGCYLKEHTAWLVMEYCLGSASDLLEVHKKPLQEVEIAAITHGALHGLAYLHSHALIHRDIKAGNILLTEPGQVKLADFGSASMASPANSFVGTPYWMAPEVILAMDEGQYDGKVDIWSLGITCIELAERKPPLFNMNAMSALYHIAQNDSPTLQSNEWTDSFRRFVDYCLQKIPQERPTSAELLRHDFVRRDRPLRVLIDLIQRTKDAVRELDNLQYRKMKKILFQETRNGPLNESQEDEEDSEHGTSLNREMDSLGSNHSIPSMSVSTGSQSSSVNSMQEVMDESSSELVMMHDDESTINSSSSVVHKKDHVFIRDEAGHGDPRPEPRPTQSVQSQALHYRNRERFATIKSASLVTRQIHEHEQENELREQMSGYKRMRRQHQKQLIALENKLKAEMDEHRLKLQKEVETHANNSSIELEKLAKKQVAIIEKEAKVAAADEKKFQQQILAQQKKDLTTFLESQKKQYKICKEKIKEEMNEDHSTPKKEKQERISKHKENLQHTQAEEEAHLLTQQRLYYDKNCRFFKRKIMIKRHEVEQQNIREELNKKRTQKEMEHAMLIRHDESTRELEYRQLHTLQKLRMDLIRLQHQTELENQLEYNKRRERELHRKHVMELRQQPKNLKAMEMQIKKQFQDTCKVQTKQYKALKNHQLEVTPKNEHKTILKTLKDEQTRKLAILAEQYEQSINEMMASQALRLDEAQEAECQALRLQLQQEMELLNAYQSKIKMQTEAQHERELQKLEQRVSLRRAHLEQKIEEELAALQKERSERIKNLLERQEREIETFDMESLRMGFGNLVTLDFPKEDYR
Method in brief: as §1

FLT4 = FLT4 (Homo sapiens, UniProt P35916)
Method in brief: as §1

RET = RET (Homo sapiens, UniProt P07949)
Method in brief: as §1

MLK1 = molecular target: T1, MLK1 (Homo sapiens, UniProt P80192)
T1 construct: gene MAP3K9
Method in brief: as §1

[1] = molecular target: T2, ABL1(H396P)-nonphosphorylated (Homo sapiens, UniProt P00519, H396P)
T2 construct: nonphosphorylated
Method in brief: as §1

ABL2 = ABL2 (Homo sapiens, UniProt P42684)
Method in brief: as §1

RET(V804L) = RET(V804L) (Homo sapiens, UniProt P07949, V804L)
Method in brief: as §1

MAP3K15 = MAP3K15 (Homo sapiens, UniProt Q6ZN16)
Chain of MAP3K15 (Q6ZN16 whole entry): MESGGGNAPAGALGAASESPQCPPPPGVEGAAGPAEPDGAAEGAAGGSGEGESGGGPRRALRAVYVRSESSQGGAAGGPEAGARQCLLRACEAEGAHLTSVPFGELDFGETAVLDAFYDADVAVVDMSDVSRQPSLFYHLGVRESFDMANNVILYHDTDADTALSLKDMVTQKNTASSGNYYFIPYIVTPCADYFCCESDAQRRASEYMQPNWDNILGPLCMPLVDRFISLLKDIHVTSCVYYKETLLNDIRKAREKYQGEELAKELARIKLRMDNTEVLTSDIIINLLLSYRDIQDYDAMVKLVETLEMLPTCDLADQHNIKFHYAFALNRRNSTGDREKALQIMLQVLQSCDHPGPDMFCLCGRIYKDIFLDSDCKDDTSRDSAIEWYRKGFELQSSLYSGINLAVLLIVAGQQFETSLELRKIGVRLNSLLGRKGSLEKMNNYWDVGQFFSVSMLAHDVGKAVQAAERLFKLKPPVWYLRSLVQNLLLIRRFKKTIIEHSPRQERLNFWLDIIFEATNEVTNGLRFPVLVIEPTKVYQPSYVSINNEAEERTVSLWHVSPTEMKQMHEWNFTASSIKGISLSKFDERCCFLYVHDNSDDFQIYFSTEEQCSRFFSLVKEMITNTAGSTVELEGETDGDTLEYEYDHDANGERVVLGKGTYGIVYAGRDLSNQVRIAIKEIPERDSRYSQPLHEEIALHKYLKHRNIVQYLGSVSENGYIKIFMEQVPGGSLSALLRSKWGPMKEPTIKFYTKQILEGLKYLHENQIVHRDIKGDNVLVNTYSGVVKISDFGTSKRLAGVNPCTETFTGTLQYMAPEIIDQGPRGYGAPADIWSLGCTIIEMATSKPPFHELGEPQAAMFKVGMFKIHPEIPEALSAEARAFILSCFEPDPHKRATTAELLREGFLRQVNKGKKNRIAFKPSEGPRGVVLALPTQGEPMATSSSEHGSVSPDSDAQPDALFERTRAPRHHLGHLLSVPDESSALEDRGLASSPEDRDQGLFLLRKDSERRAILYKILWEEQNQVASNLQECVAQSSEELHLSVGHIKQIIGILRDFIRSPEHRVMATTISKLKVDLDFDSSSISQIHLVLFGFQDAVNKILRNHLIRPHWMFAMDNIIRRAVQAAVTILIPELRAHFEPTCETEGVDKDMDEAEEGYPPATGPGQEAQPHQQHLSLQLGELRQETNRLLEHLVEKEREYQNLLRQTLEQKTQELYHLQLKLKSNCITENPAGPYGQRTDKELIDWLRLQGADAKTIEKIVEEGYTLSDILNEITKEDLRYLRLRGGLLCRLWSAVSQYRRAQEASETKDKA
Method in brief: as §1

[2] = molecular target: T3, ABL1(Q252H)-phosphorylated (Homo sapiens, UniProt P00519, Q252H)
T3 construct: phosphorylated
Method in brief: as §1

YES = molecular target: T4, YES (Homo sapiens, UniProt P07947)
T4 construct: gene YES1
T4 sequence (P07947 whole entry): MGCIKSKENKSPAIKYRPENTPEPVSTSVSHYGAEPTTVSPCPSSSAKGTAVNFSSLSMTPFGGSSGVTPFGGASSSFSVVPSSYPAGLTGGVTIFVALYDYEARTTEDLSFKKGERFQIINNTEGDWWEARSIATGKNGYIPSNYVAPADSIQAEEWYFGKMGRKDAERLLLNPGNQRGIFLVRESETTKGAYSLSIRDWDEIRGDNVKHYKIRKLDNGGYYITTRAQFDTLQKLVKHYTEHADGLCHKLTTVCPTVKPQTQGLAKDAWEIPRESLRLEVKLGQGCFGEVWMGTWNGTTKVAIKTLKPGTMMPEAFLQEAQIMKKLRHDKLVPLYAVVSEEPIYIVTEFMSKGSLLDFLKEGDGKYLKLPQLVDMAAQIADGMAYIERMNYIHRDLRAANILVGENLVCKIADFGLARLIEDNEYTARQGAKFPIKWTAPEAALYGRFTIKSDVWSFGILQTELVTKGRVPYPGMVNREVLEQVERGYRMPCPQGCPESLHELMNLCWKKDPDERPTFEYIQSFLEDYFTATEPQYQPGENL
Method in brief: as §1

PRKX = PRKX (Homo sapiens, UniProt P51817)
Chain of PRKX (P51817 whole entry): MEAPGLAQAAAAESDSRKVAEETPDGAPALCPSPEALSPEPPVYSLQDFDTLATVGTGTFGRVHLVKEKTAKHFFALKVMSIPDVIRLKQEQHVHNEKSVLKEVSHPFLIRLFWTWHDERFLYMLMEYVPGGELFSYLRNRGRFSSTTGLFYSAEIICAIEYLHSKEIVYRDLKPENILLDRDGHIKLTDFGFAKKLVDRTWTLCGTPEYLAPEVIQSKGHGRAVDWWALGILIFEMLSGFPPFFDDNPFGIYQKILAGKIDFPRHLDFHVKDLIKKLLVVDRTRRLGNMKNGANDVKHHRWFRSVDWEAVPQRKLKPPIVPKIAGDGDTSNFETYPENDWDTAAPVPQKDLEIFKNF
Method in brief: as §1

PRKCH = PRKCH (Homo sapiens, UniProt P24723)
Method in brief: as §1

FLT3(R834Q) = FLT3(R834Q) (Homo sapiens, UniProt P36888, R834Q)
Method in brief: as §1

DAPK1 = DAPK1 (Homo sapiens, UniProt P53355)
Method in brief: as §1

ADCK4 = molecular target: T5, ADCK4 (Homo sapiens, UniProt Q96D53)
T5 construct: gene COQ8B
Method in brief: as §1

OSR1 = molecular target: T6, OSR1 (Homo sapiens, UniProt O95747)
T6 construct: gene OXSR1
Method in brief: as §1

CAMK2B = CAMK2B (Homo sapiens, UniProt Q13554)
Method in brief: as §1

FAK = molecular target: T7, FAK (Homo sapiens, UniProt Q05397)
T7 construct: gene PTK2
T7 sequence (Q05397 whole entry): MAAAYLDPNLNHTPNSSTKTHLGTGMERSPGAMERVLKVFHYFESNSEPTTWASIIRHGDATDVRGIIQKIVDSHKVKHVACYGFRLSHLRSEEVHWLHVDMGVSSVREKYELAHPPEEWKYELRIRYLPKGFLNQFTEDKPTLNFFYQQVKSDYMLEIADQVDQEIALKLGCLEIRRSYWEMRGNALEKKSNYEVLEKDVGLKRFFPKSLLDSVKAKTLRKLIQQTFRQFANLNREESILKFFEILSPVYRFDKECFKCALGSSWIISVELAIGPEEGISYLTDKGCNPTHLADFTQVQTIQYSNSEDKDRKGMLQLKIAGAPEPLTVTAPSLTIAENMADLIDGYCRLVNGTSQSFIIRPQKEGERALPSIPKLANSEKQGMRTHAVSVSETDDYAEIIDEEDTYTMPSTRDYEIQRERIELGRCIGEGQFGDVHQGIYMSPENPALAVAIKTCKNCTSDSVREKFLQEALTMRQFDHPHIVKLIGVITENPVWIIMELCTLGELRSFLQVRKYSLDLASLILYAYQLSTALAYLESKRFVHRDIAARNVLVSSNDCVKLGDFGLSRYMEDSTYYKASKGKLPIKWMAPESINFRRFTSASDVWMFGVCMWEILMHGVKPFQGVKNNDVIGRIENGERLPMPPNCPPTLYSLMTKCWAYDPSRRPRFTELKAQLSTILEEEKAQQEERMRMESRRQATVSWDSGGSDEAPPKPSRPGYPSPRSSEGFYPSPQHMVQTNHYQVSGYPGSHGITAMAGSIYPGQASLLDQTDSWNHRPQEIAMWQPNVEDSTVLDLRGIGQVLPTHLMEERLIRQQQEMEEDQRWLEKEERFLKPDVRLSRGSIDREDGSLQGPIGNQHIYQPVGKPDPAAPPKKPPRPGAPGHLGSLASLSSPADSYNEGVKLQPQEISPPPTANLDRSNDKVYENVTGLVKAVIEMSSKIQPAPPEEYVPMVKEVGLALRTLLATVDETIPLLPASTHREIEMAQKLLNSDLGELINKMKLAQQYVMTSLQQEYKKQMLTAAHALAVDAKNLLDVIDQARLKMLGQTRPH
Method in brief: as §1

What does the source list for O=C(/C=C/c1cnccc1-c1ccc(F)cc1)Nc1ccc(CCc2nnco2)cc1 [T-418, (2E)-3-(4-(4-fluorophenyl)pyridin-3-yl)-N-(4-(2-(1,3,4-oxadiazol-2-yl)ethyl)phenyl)acrylamide]?
remaining binding at 0.3 µM (TNNI3K; sheet T-418): 100%; remaining binding at 0.3 µM (PLK4; sheet T-418): 78%; remaining binding at 0.3 µM (SLK; sheet T-418): 100%; remaining binding at 0.3 µM (PKN2; sheet T-418): 95%; remaining binding at 0.3 µM (TAOK3; sheet T-418): 90%; remaining binding at 0.3 µM (FLT4; sheet T-418): 84%; remaining binding at 0.3 µM (RET; sheet T-418): 63%; remaining binding at 0.3 µM (MLK1; sheet T-418): 100%; remaining binding at 0.3 µM ([1]; sheet T-418): 97%; remaining binding at 0.3 µM (ABL2; sheet T-418): 90%; remaining binding at 0.3 µM (RET(V804L); sheet T-418): 81%; remaining binding at 0.3 µM (MAP3K15; sheet T-418): 100%; remaining binding at 0.3 µM ([2]; sheet T-418): 84%; remaining binding at 0.3 µM (YES; sheet T-418): 100%; remaining binding at 0.3 µM (PRKX; sheet T-418): 100%; remaining binding at 0.3 µM (PRKCH; sheet T-418): 88%; remaining binding at 0.3 µM (FLT3(R834Q); sheet T-418): 88%; remaining binding at 0.3 µM (DAPK1; sheet T-418): 100%; remaining binding at 0.3 µM (ADCK4; sheet T-418): 91%; remaining binding at 0.3 µM (OSR1; sheet T-418): 53%; remaining binding at 0.3 µM (CAMK2B; sheet T-418): 84%; remaining binding at 0.3 µM (FAK; sheet T-418): 80%

Which remaining binding at 0.3 µM (TNNI3K) does the source give for Cc1ncccc1Oc1sc(C(N)=O)c2c1-c1c(cnn1C)CC2 [T-474, 1-methyl-8-((2-methylpyridin-3-yl)oxy)-4,5-dihydro-1H-thieno[3,4-g]indazole-6-carboxamide] here?
The remaining binding at 0.3 µM was 95%.

And the remaining binding at 0.3 µM (PLK4)?
The remaining binding at 0.3 µM was 86%.

And the remaining binding at 0.3 µM (SLK)?
The remaining binding at 0.3 µM was 100%.

And the remaining binding at 0.3 µM (PKN2)?
Its remaining binding at 0.3 µM is 100%.

And the remaining binding at 0.3 µM (TAOK3)?
The remaining binding at 0.3 µM was 88%.

What about the remaining binding at 0.3 µM (FLT4) of the same compound?
The remaining binding at 0.3 µM was 83%.

What about the remaining binding at 0.3 µM (RET) of the same compound?
The remaining binding at 0.3 µM was 100%.

And the remaining binding at 0.3 µM (MLK1)?
Its remaining binding at 0.3 µM is 100%.

What about the remaining binding at 0.3 µM [1] of the same compound?
Its remaining binding at 0.3 µM is 100%.

What about the remaining binding at 0.3 µM (ABL2) of the same compound?
Its remaining binding at 0.3 µM is 100%.

And the remaining binding at 0.3 µM (RET(V804L))?
Its remaining binding at 0.3 µM is 94%.

And the remaining binding at 0.3 µM (MAP3K15)?
The remaining binding at 0.3 µM was 100%.

And the remaining binding at 0.3 µM [2]?
Its remaining binding at 0.3 µM is 89%.

And the remaining binding at 0.3 µM (YES)?
Its remaining binding at 0.3 µM is 100%.

What about the remaining binding at 0.3 µM (PRKX) of the same compound?
The remaining binding at 0.3 µM was 100%.

What about the remaining binding at 0.3 µM (PRKCH) of the same compound?
The remaining binding at 0.3 µM was 100%.

And the remaining binding at 0.3 µM (FLT3(R834Q))?
The remaining binding at 0.3 µM was 91%.

What about the remaining binding at 0.3 µM (DAPK1) of the same compound?
Its remaining binding at 0.3 µM is 100%.

What about the remaining binding at 0.3 µM (ADCK4) of the same compound?
The remaining binding at 0.3 µM was 92%.

And the remaining binding at 0.3 µM (OSR1)?
Its remaining binding at 0.3 µM is 60%.

And the remaining binding at 0.3 µM (CAMK2B)?
The remaining binding at 0.3 µM was 99%.

What about the remaining binding at 0.3 µM (FAK) of the same compound?
Its remaining binding at 0.3 µM is 88%.
